Entries after “also recorded” stand apart in the source; their conditions may differ. Marks after values point to notes of the source that are not given here.
What was measured:
[1] = test system: ouabain induced arrhythmia (VT, VF, mortality); assay: Ouabain induced arrhythmia model in guinea pig; assay type: in vivo; details: for % INCIDENCE OF MORTALITY: mortality at 60 min; for deaths due to conduction block (60 min), actual incidence (value in parenthesis) / deaths due to tachyarrhythmia (60 min), actual incidence (value in parenthesis): number of animals; for actual incidence of VF (value in parenthesis) / actual incidence of VT (value in parenthesis) / actual incidence of mortality (value in parenthesis): number of animals of the group; for % INCIDENCE OF VF / % INCIDENCE OF VT: ouabain 240 μg/kg in three doses, observed one hour; for DEATHS DUE TO CONDUCTION BLOCK (60 MIN) Percentage / DEATHS DUE TO TACHYARRHYTHMIA (60 MIN) Percentage: percentage deaths out of total mortality; for actual incidence of mortality (value in parenthesis): 60 min
Description: Method: Guinea pigs (Dunken Hartley) of either sex weighing between 400 and 500 g were used for the study. The animals were anesthetized with urethane (1.25 g/kg. i.p.). The left common carotid artery and left jugular vein were cannulated for arterial blood pressure monitoring and intravenous access respectively. Lead II electrocardiogram, arterial blood pressure, mean arterial blood pressure (MABP), heart rate were monitored throughout the experiment.
After initial surgical preparations and allowing 30 minutes for the animal to stabilise the first dose of ouabain (90 μg/kg) was administered over a period of one minute. After the interval of thirty minutes, second dose of ouabain (60 μg/kg) was administered over a period of one minute. One minute after this dose, 0.5 ml saline (in control experiments) was administered over a period of one minute. After an interval of 10 minutes a third dose of ouabain (90 μg/kg) was administered over a period of one minute. […] The test compounds were administered to animals in test group in place of saline to evaluate their antiarrhythmic potential. From the ECG recordings, the incidence of VT, VF and mortality were recorded. The doses of ratios of sotalol isomers studied were 0.1, 0.5 and 2.5 mg/kg.
Interpretation of ECG recordings: Minor disturbance in rhythm was not considered while evaluating ventricular tachyarrhythmias. A run of more than 3 ventricular ectopic beats having wide QRS complexes associated with partial haemodynamic collapse was considered as Ventricular Tachycardia (VT). Total morphological irregularity of repetitive complexes for at least six cycles associated with complete haemodynamic collapse was considered as Ventricular Fibrillation (VF). Successful arrhythmia protection was defined as no occurrence of VT and VF from the injection of saline/test drug till the end of the experiment.
Statistics: Chi square test with continuity correction at 95% confidence limit was applied to find out the statistical significance between control and test groups for incidence of VT, VF and mortality. Whenever, any of the value in a cell was less than 5, Fischer's exact probability test was used.
Results: Different ratios of sotalol in the dose range from 0.02 mg/kg to 12.5 mg/kg were studied in individual groups of animals. In all 18 groups were studied and at least 6 animals were used in each group. In control animals ouabain 240 μg/kg in three divided doses induced reproducible ventricular tachyarrhythmias in guinea pigs. It was observed that ventricular arrhythmias appeared after the administration of the third dose. Guinea pigs which responded early i.e. before or within 1 min. of administration of the second dose, were considered early responders and were not included in the study. […] In the study, control experiments were carried out randomly interspersed in test groups. Among the 42 control animals the incidence of VT was 81%, incidence of VF was 71.4% and the incidence of mortality at 60 minutes was 61.9%.

[2] = test system: beta adrenergic blockade, isolated right auricle preparation of rabbit; assay: Beta blocking potency (pA2 against isoprenaline) in isolated rabbit right auricle; details: isoprenaline chronotropic response, Schild's plot
Method: Estimation of the beta blockade of various ratios of d- and l- isomers of sotalol was carried out in the isolated right auricle preparation of rabbit. The spontaneously beating right atrium was dissected and mounted in a 20 ml tissue bath. The resting tension on the atria was set at 1 g. The contractions were recorded using a force displacement transducer. The spontaneous contractions of the right atria were recorded isometrically and the heart rate was obtained as a derived parameter using a ratemeter that gave the output in beats per minute. Six different ratios of d and l isomers were investigated (1:1, 2:1, 3:1, 4:1, 5:1 and 1:0). Dose-response-curves (DRC) for isoprenaline in the isolated atria, using the chronotropic response were determined by cumulative addition of isoprenaline. The pA2 values of each of the ratios were estimated using the classical Schild's plot (Schild, 1957) and the values are shown in Table 1.

[3] = guinea pig, in vivo, listed as 2.5:1 ratio (d:l)

CC(C)NCC(O)c1ccc(NS(C)(=O)=O)cc1 (racemic) [dl-SOTALOL, N-[4-[1-hydroxy-2-[(1-methylethyl)amino]ethyl]phenyl] methane sulfonamide]
% INCIDENCE OF MORTALITY ([1]; 0.02 mg/kg): 16.6% | deaths due to conduction block (60 min), actual incidence (value in parenthesis) ([1]; 0.02 mg/kg): (0) | deaths due to tachyarrhythmia (60 min), actual incidence (value in parenthesis) ([1]; 0.02 mg/kg): (1) | actual incidence of VF (value in parenthesis) ([1]; 0.02 mg/kg): (5) | actual incidence of VT (value in parenthesis) ([1]; 0.02 mg/kg): (5) | % INCIDENCE OF VF ([1]; 0.02 mg/kg): 83.3% | % INCIDENCE OF VT ([1]; 0.02 mg/kg): 83.3% | DEATHS DUE TO CONDUCTION BLOCK (60 MIN) Percentage ([1]; 0.02 mg/kg): 00.0% | DEATHS DUE TO TACHYARRHYTHMIA (60 MIN) Percentage ([1]; 0.02 mg/kg): 100.0% | actual incidence of mortality (value in parenthesis) ([1]; 0.1 mg/kg): (2) | % INCIDENCE OF MORTALITY ([1]; 0.1 mg/kg): 33.3% | deaths due to conduction block (60 min), actual incidence (value in parenthesis) ([1]; 0.1 mg/kg): (1) | deaths due to tachyarrhythmia (60 min), actual incidence (value in parenthesis) ([1]; 0.1 mg/kg): (1) | actual incidence of VF (value in parenthesis) ([1]; 0.1 mg/kg): (2) | actual incidence of VT (value in parenthesis) ([1]; 0.1 mg/kg): (2)* | % INCIDENCE OF VF ([1]; 0.1 mg/kg): 33.3% | % INCIDENCE OF VT ([1]; 0.1 mg/kg): 33.3% | DEATHS DUE TO CONDUCTION BLOCK (60 MIN) Percentage ([1]; 0.1 mg/kg): 50.0% | DEATHS DUE TO TACHYARRHYTHMIA (60 MIN) Percentage ([1]; 0.1 mg/kg): 50.0% | actual incidence of mortality (value in parenthesis) ([1]; 0.5 mg/kg): (3) | % INCIDENCE OF MORTALITY ([1]; 0.5 mg/kg): 50.0% | deaths due to conduction block (60 min), actual incidence (value in parenthesis) ([1]; 0.5 mg/kg): (3) | deaths due to tachyarrhythmia (60 min), actual incidence (value in parenthesis) ([1]; 0.5 mg/kg): (0) | actual incidence of VF (value in parenthesis) ([1]; 0.5 mg/kg): (2) | actual incidence of VT (value in parenthesis) ([1]; 0.5 mg/kg): (2)* | % INCIDENCE OF VF ([1]; 0.5 mg/kg): 33.3% | % INCIDENCE OF VT ([1]; 0.5 mg/kg): 33.3% | DEATHS DUE TO CONDUCTION BLOCK (60 MIN) Percentage ([1]; 0.5 mg/kg): 100.0% | DEATHS DUE TO TACHYARRHYTHMIA (60 MIN) Percentage ([1]; 0.5 mg/kg): 00.0% | protection against mortality ([1]; 2.5 mg/kg): no protection | protection from deaths due to tachyarrhythmias ([1]; 2.5 mg/kg): completely protected | actual incidence of mortality (value in parenthesis) ([1]; 2.5 mg/kg): (6) | % INCIDENCE OF MORTALITY ([1]; 2.5 mg/kg): 60.0% | % INCIDENCE OF MORTALITY ([1]; 2.5 mg/kg, listed as d:l sotalol (ratio 1:1)): 60% | deaths due to conduction block (60 min), actual incidence (value in parenthesis) ([1]; 2.5 mg/kg): (6) | deaths due to tachyarrhythmia (60 min), actual incidence (value in parenthesis) ([1]; 2.5 mg/kg): (0)* | actual incidence of VF (value in parenthesis) ([1]; 2.5 mg/kg): (0)* | actual incidence of VT (value in parenthesis) ([1]; 2.5 mg/kg): (0)* | % INCIDENCE OF VF ([1]; 2.5 mg/kg): 00.0% | % INCIDENCE OF VT ([1]; 2.5 mg/kg): 00.0% | DEATHS DUE TO CONDUCTION BLOCK (60 MIN) Percentage ([1]; 2.5 mg/kg): 100.0% | DEATHS DUE TO TACHYARRHYTHMIA (60 MIN) Percentage ([1]; 2.5 mg/kg): 00.0% | protection against ouabain induced VT ([1]; 0.1, 0.5 and 2.5 mg/kg dose): able to protect | protection against VF ([1]; 0.1 and 0.5 mg/kg doses): some protection | cause of deaths ([1]; as the dose was increased): entirely due to conduction abnormalities | dose at which complete protection against VT was observed ([1]; guinea pig, in vivo): 2.5 mg/kg | dose that completely protected against VF ([1]; guinea pig, in vivo): 2.5 mg/kg | minimum protective dose against ouabain induced VT ([1]; guinea pig, in vivo): 0.1 mg/kg | cause of deaths ([1]; lower doses): due to tachyarrhythmias | protection against mortality ([1]; lower doses): reduced mortality | deaths due to conduction block increased ([1]; no dose stated): increased | pA2 Mean [2]: 6.48

CC(C)NCC(O)c1ccc(NS(C)(=O)=O)cc1 (stereo not shown) [2.5:1 RATIO, N-[4-[1-hydroxy-2-[(1-methylethyl)amino]ethyl]phenyl] methane sulfonamide]
mortality compared to 2:1 ratio at the same dose ([1]; 0.5 mg/kg): lower | protection against VF ([1]; 0.5 mg/kg): some protection, it was not complete | actual incidence of mortality (value in parenthesis) ([1]; 0.5 mg/kg): (2) | protection against ouabain induced VT ([1]; 0.5 mg/kg, listed as 2.5:1 ratio (d:l)): protection was not complete | % INCIDENCE OF MORTALITY ([1]; 0.5 mg/kg): 33.3% | deaths due to conduction block (60 min), actual incidence (value in parenthesis) ([1]; 0.5 mg/kg): (2) | deaths due to tachyarrhythmia (60 min), actual incidence (value in parenthesis) ([1]; 0.5 mg/kg): (0) | actual incidence of VF (value in parenthesis) ([1]; 0.5 mg/kg): (2) | actual incidence of VT (value in parenthesis) ([1]; 0.5 mg/kg): (2)* | % INCIDENCE OF VF ([1]; 0.5 mg/kg): 33.3% | % INCIDENCE OF VT ([1]; 0.5 mg/kg): 33.3% | DEATHS DUE TO CONDUCTION BLOCK (60 MIN) Percentage ([1]; 0.5 mg/kg): 100.0% | DEATHS DUE TO TACHYARRHYTHMIA (60 MIN) Percentage ([1]; 0.5 mg/kg): 00.0% | protection against mortality ([1]; 2.5 mg/kg): protected significantly | protection from deaths due to tachyarrhythmias ([1]; 2.5 mg/kg): completely protected | protection against arrhythmias (VT and VF) ([1]; 2.5 mg/kg, listed as 2.5:1): completely protects; also recorded: complete protection | % INCIDENCE OF MORTALITY ([1]; 2.5 mg/kg): 16.6% | % INCIDENCE OF MORTALITY ([1]; 2.5 mg/kg, listed as 2.5:1): 16.6% | deaths due to conduction block (60 min), actual incidence (value in parenthesis) ([1]; 2.5 mg/kg): (1) | deaths due to tachyarrhythmia (60 min), actual incidence (value in parenthesis) ([1]; 2.5 mg/kg): (0) | actual incidence of VF (value in parenthesis) ([1]; 2.5 mg/kg): (0)* | actual incidence of VT (value in parenthesis) ([1]; 2.5 mg/kg): (0)* | % INCIDENCE OF VF ([1]; 2.5 mg/kg): 0.0% | % INCIDENCE OF VT ([1]; 2.5 mg/kg): 0.0% | DEATHS DUE TO CONDUCTION BLOCK (60 MIN) Percentage ([1]; 2.5 mg/kg): 100.0% | DEATHS DUE TO TACHYARRHYTHMIA (60 MIN) Percentage ([1]; 2.5 mg/kg): 00.0% | dose at which complete protection against VT was observed [1, 3]: 2.5 mg/kg | dose that completely protected against VF [1, 3]: 2.5 mg/kg | cause of deaths ([1]; no dose stated): due to conduction abnormalities | mortality compared with control groups ([1]; no dose stated): less than that of control groups

From US20010004643A1, “Pharmaceutical composition with sotalol combination and their use in treatment of cardiac ailments” (priority 1999, published 2001)
